Test results reported in ChEMBL document CHEMBL2157933, “The synthesis and antituberculosis activity of 5'-nor carbocyclic uracil derivatives” (Bioorg Med Chem, 2012).
Values after ≈ are worked out from the molar mass of the structure shown.

Experiments:
Format in all cases: functional
[1] = system: Mycobacterium tuberculosis; test: Antibacterial activity against multidrug-resistant Mycobacterium tuberculosis MS-115 under anaerobic condition assessed as growth inhibition at 10 to 20 ug/ml by BACTEC method
[2] = system: Mycobacterium tuberculosis; test: Antibacterial activity against multidrug-resistant Mycobacterium tuberculosis MS-115 under anaerobic condition by BACTEC method
[3] = system: Mycobacterium tuberculosis; test: Antibacterial activity against multidrug-resistant Mycobacterium tuberculosis MS-115 under anaerobic condition assessed as growth inhibition at 20 ug/ml by BACTEC method; details: read-out: GI
[4] = system: Mycobacterium tuberculosis; test: Antibacterial activity against multidrug-resistant Mycobacterium tuberculosis MS-115 under anaerobic condition assessed as growth inhibition at 10 ug/ml by BACTEC method; details: read-out: GI
[5] = system: Mycobacterium tuberculosis; test: Antibacterial activity against multidrug-resistant Mycobacterium tuberculosis MS-115 under anaerobic condition assessed as growth inhibition at 5 ug/ml by BACTEC method; details: read-out: GI
[6] = system: Mycobacterium tuberculosis; test: Antibacterial activity against multidrug-resistant Mycobacterium tuberculosis MS-115 under anaerobic condition assessed as growth inhibition at 0.1 ug/ml by BACTEC method; details: read-out: GI
[7] = system: Mycobacterium tuberculosis; test: Antibacterial activity against multidrug-resistant Mycobacterium tuberculosis MS-115 under anaerobic condition assessed as growth inhibition at 2 ug/ml by BACTEC method; details: read-out: GI
[8] = system: Mycobacterium tuberculosis; test: Antibacterial activity against multidrug-resistant Mycobacterium tuberculosis MS-115 under anaerobic condition assessed as growth inhibition at 100 ug/ml by BACTEC method; details: read-out: GI
[9] = system: Mycobacterium tuberculosis; test: Antibacterial activity against multidrug-resistant Mycobacterium tuberculosis MS-115 under anaerobic condition assessed as growth inhibition at 1 ug/ml by BACTEC method; details: read-out: GI

CCCCCCCCCCCCC#Cc1cn(C2C=CC(O)C2)c(=O)[nH]c1=O (racemic)
growth inhibition (GI) [1]: 100%

CCCCCCCCCCCCC#Cc1cn(C2C=CC(O)C2)c(=O)[nH]c1=O (single isomer, unassigned; (-))
MIC99 [2]: 10 µg/mL (≈ 25.9 µM) | inhibition of growth at 20 µg/mL [3]: 100% | inhibition of growth at 10 µg/mL [4]: 99%

CC[C@@H](CO)NCCN[C@@H](CC)CO [ETHAMBUTOL]
inhibition of growth at 5 µg/mL [5]: 0%

NNC(=O)c1ccncc1 [ISONIAZID]
inhibition of growth at 0.1 µg/mL [6]: 0%

CC1COc2c(N3CCN(C)CC3)c(F)cc3c(=O)c(C(=O)O)cn1c23 (stereo unspecified) [OFLOXACIN]
MIC99 [2]: 2 µg/mL (≈ 5.53 µM) | inhibition of growth at 2 µg/mL [7]: 100%

NC(=O)c1cnccn1 [PYRAZINAMIDE]
inhibition of growth at 100 µg/mL [8]: 0%

CO[C@H]1/C=C/O[C@@]2(C)Oc3c(C)c(O)c4c(O)c(c(/C=N/N5CCN(C)CC5)c(O)c4c3C2=O)NC(=O)/C(C)=C\C=C\[C@H](C)[C@H](O)[C@@H](C)[C@@H](O)[C@@H](C)[C@H](OC(C)=O)[C@@H]1C [RIFAMPIN]
inhibition of growth at 1 µg/mL [9]: 0%

CN[C@@H]1[C@H](O[C@H]2[C@H](O[C@H]3[C@H](O)[C@@H](O)[C@H](N=C(N)N)[C@@H](O)[C@@H]3N=C(N)N)O[C@@H](C)[C@]2(O)C=O)O[C@@H](CO)[C@H](O)[C@H]1O [STREPTOMYCIN]
inhibition of growth at 0.1 µg/mL [6]: 0%
